Values quoted from earlier work, collected in patent US20100130406A1, “GLYCATED MILK AND USES THEREOF” (SOMNACEUTICS LIMITED, priority 2007, published 2010).

Assays:
[1] = normal (non-glycated) peptide

In the case of `COc1ccc2[nH]cc(CCNC(C)=O)c2c1` [Melatonin], the “quantity having a soporific effect for some people” value (humans) is given as 3 to 5 mg.
In the case of `N[C@@H](Cc1c[nH]c2ccccc12)C(=O)O` [1-tryptophane], the “quantity required for a soporific effect” value (humans) is listed as “about 1 g”.
In the case of beta-casomorphin-7, the “sedative and anxiolytic effects” value (cockroaches) is given as “sedative and anxiolytic effects”, the “sedative and anxiolytic effects” value (chickens) is given as “sedative and anxiolytic effects” and the “sedative and anxiolytic effects” value (rats) is given as “sedative and anxiolytic effects”. For the same molecule, the “half-life in the circulation” value [1] was “about a few minutes”.
